Measured values: US9370511B2, “Morphinan-derivatives for treating diabetes and related disorders” (priority 2011, dated 2016)
“Also recorded” adds a separate entry of the source.

Tests used:
[1] = system: painful diabetic neuropathy; settings: in vivo; cited from earlier work
[2] = system: male subjects with type 2 diabetes mellitus; experiment: Clinical trial, oral single dose followed by oral glucose tolerance test (OGTT); type: in vivo, human
Procedure: The study was designed as a randomized, double-blind, placebo-controlled crossover study to investigate the glucose lowering effect of oral single doses of DXM 270 mg (FIG. 10) and DXM 60 mg (FIG. 11) vs. placebo in subjects with T2DM following an oral glucose tolerance test (OGTT). DXM 270 mg, DXM 60 mg or placebo was administered orally at 0 minutes. OGTT was started at 60 minutes (75 g glucose orally). Blood glucose levels were measured at the indicated times. n=20 male with T2DM on a stable regimen of metformin monotherapy, between 45 and 70 years of age, with a BMI between 25 and 35 kg/m2, HbA1c between 7 and 8%. Student's t-test. *p=0.01, **p<0.001All values are means±SD.

[3] = system: mouse pancreatic islets; experiment: Insulin secretion from mouse pancreatic islets at low and high glucose; type: cell-based; settings: comparison of DXO, DXM and LEV
Procedure: (§1) Mouse pancreatic islets were treated with a low, non-stimulatory glucose concentration (2.5 mM) or a high, stimulatory glucose concentration (25 mM) in the absence or presence of 1 μM or 10 μM dextrorphan. Insulin secretion was determined as percent of […] glucose control, and values are expressed as means+/−SD (N=3). The asterisks (*) indicate p values smaller than 0.05 in Student's t-tests.
Low Glucose (2.5 mM); High Glucose (25 mM); p<0.05 (Student's t-Test), N=3.
Example 1 was repeated in order to compare dextrorphan, dextromethorphan, and levorphanol with one another.

[4] = system: children with severe bacterial meningitis; settings: 36 mg kg^−1 day^−1; two children, also on glucocorticoids; cited from earlier work
[5] = system: db/db mouse (an animal model for human type 2 diabetes mellitus); experiment: Long-term treatment of db/db mice with dextromethorphan in drinking water; type: in vivo
Text: Therefore, long-term treatment with dextromethorphan is beneficial for beta cell function and blood glucose control in a mouse model for human type 2 diabetes mellitus.

[6] = system: human pancreatic islets; experiment: Insulin secretion from human pancreatic islets at low and high glucose; type: cell-based; settings: 1 μM; low glucose 2 mM vs high glucose 20 mM
Procedure: as §1
Example 1 was repeated but the mouse pancreatic islets were replaced by human pancreatic islets.
Low Glucose (2 mM); High Glucose (20 mM); the asterisks (*) indicate p values smaller than 0.05 in Student's t-tests.

[7] = system: diabetics; settings: long-term experience; cited from earlier work
[8] = 3 mg/ml in drinking water, 8 weeks, compared to low dose 1 mg/ml

**Q.** What does the source list for COc1ccc2c(c1)[C@]13CCCC[C@@H]1[C@H](C2)N(C)CC3 [dextromethorphan, (+)-3-methoxy-17-methyl-(9α,13α,14α)-morphinan]?
**A.** efficacy in painful diabetic neuropathy [1]: effective in treating painful diabetic neuropathy; blood glucose levels during oral glucose tolerance test ([2]; 60 mg oral single dose vs placebo): too low a concentration; starving blood glucose levels ([2]; 270 mg oral single dose): does not affect starving blood glucose levels; blood glucose levels during oral glucose tolerance test ([2]; 270 mg oral single dose vs placebo): significantly lowers blood glucose levels after glucose uptake; hypoglycemic events ([2]; 20 patients, oral single doses): no hypoglycemic events were observed; glucose-dependent insulin secretion, compared with levorphanol [3]: significantly more effective in inducing glucose-dependent insulin secretion than levorphanol; glucose-dependent insulin secretion, compared with levorphanol ([3]; listed as DXM): increase glucose-dependent insulin secretion from pancreatic islets to a significantly larger extent compared to LEV; serious adverse event [4]: developed an insulin dependent diabetes mellitus; effectiveness of the low dose ([5]; 1 mg/ml in drinking water): ineffective; beta cell area [5, 8]: significantly larger; insulin content of islets [5, 8]: significantly increased; also recorded: contained significantly more insulin; starving blood glucose levels [5, 8]: significantly improved starving blood glucose levels; also recorded: lower blood glucose levels or better blood glucose control

**Q.** With COc1ccc(Cl)cc1C(=O)NCCc1ccc(S(=O)(=O)NC(=O)NC2CCCCC2)cc1 [glibenclamide] as the compound, how does the “insulin secretion, basal and glucose-stimulated” value [6] read?
**A.** Its value is “increases both basal (2 mM glucose) and glucose-stimulated (20 mM glucose) insulin secretion”.

**Q.** Which “glucose-dependent insulin secretion, compared with levorphanol” value [3] does the source give for CN1CC[C@]23CCCC[C@H]2[C@H]1Cc1ccc(O)cc13 [levorphanol] here?
**A.** The value was “not the levorotatory (−) stereoisomer that mainly targets opioid receptors, increases glucose-dependent insulin secretion to a large extent”.

**Q.** With CN(C)C(=N)N=C(N)N [metformin] as the compound, how does the “reduction of diabetes complications and mortality” value [7] read?
**A.** The value was “about 30%”.
